The record followed here is patent US9314026B2, “Heterocyclylpyri(mi)dinylpyrazole” (Bayer Intellectual Property GmbH, priority 2011, dated 2016).

Data set [1] has as its system Alternaria solani. The experiment in a line: Alternaria test (tomato)/preventive. It counts as in vivo. The note with it: 168 h, 500 ppm of active ingredient, preventive, evaluated 7 days after inoculation, read-out: efficacy. The procedure: Alternaria Test (Tomato)/Preventive Solvent: 49 parts by weight of N,N-Dimethylformamide Emulsifier: 1 part by weight of Alkylarylpolyglycolether To produce a suitable preparation of active compound, 1 part by weight of active compound is mixed with the stated amounts of solvent and emulsifier, and the concentrate is diluted with water to the desired concentration. To test for preventive activity, young plants are sprayed with the preparation of active compound at the stated rate of application. One day after this treatment, the plants are inoculated with an aqueous spore suspension of Alternaria solani. […] Then the plants are placed in an incubation cabinet at approximately 20° C. and a relative atmospheric humidity of 96%.

For data set [2], the system named is Pyrenophora teres. Description: Pyrenophora test (barley)/preventive. The data set is classed as in vivo. The following applies: 500 ppm of active ingredient, preventive, evaluated 7-9 days after inoculation, read-out: efficacy. The procedure:
(§1) Pyrenophora Test (Barley)/Preventive Solvent: 49 parts by weight of N,N-Dimethylformamide Emulsifier: 1 part by weight of Alkylarylpolyglycolether To produce a suitable preparation of active compound, 1 part by weight of active compound is mixed with the stated amounts of solvent and emulsifier, and the concentrate is diluted with water to the desired concentration. To test for preventive activity, young plants are sprayed with the preparation of active compound at the stated rate of application. One day after this treatment, the plants are inoculated with an aqueous spore suspension of Pyrenophora teres.

In data set [3] the test system is Septoria tritici. Description: Septoria tritici-test (wheat)/preventive. It counts as in vivo. The note with it: 500 ppm of active ingredient, preventive, evaluated 21 days after inoculation. The method, then: Septoria tritici-Test (Wheat)/Preventive Solvent: 49 parts by weight of n,n-dimethylacetamid Emulsifier: 1 part by weight of alkylaryl polyglycol ether To produce a suitable preparation of active compound, 1 part by weight of active compound or active compound combination is mixed with the stated amounts of solvent and emulsifier, and the concentrate is diluted with water to the desired concentration. To test for preventive activity, young plants are sprayed with the preparation of active compound or active compound combination at the stated rate of application. After the spray coating has been dried, the plants are sprayed with a spore suspension of Septoria tritici.

Data set [4] relates to Fusarium nivale (var. majus). Description: Fusarium nivale (var. majus)-test (wheat)/preventive. The data set is classed as in vivo. The note with it: Microdochium nivale, 120 h, 500 ppm of active ingredient, preventive, evaluated 5 days after inoculation, read-out: efficacy. The procedure:
Fusarium nivale (Var. Majus)-Test (Wheat)/Preventive Solvent: 49 parts by weight of n,n-dimethylacetamid Emulsifier: 1 part by weight of alkylaryl polyglycol ether To produce a suitable preparation of active compound, 1 part by weight of active compound or active compound combination is mixed with the stated amounts of solvent and emulsifier, and the concentrate is diluted with water to the desired concentration. To test for preventive activity, young plants are sprayed with the preparation of active compound or active compound combination at the stated rate of application. After the spray coating has been dried, the plants are slightly injured by using a sandblast and afterwards they are sprayed with a conidia suspension of Fusarium nivale (var. majus).

The subject of data set [5] is Sphaerotheca fuliginea. The experiment in a line: Sphaerotheca test (cucumber)/preventive. It counts as in vivo. The following applies: Podosphaera fuliginea, 168 h, 500 ppm of active ingredient, preventive, evaluated 7 days after inoculation, 0% = untreated control, 100% = no disease, read-out: efficacy. The method, then: as §1, with “Sphaerotheca” for “Pyrenophora”, “(Cucumber)/Preventive” for “(Barley)/Preventive”, “Sphaerotheca fuliginea.” for “Pyrenophora teres.”

For data set [6], the system named is Puccinia recondita. Description: Puccinia test (wheat)/preventive. The following applies: 500 ppm of active ingredient, preventive, evaluated 7-9 days after inoculation, read-out: efficacy. It counts as in vivo. The method, then:
as §1, with “Puccinia” for “Pyrenophora”, “(Wheat)/Preventive” for “(Barley)/Preventive”, “Puccinia recondita.” for “Pyrenophora teres.”

The test system of data set [7] is Fusarium graminearum. The experiment in a line: whole plant or invertebrate. The data set is classed as in vivo. The following applies: in Hordeum vulgare, 120 h, read-out: efficacy.
A short description of data set [8]: determination of the log P values by HPLC on a reverse phase column (C18), EEC-Directive 79/831 Annex V.A8. It counts as physicochemical. The procedure:
Method A Note on the determination of the log P values and mass detection: The stated log P values were determined in accordance with EEC-Directive 79/831 Annex V.A8 by HPLC (High Performance Liquid Chromatography) on a reverse phase column (C18). […] The mass detection was effected with an […] system. Method B Note on the determination of the log P values and mass detection: The stated log P values were determined in accordance with EEC-Directive 79/831 Annex V.A8 by HPLC (High Performance Liquid Chromatography) on a reverse phase column (C18). […] The mass detection was effected with the Micronass ZQ2000 mass detector from Waters. Method C Note on the determination of the log P values and mass detection: The stated log P values were determined in accordance with EEC-Directive 79/831 Annex V.A8 by UPLC (Ultra Performance Liquid Chromatography) on a reverse phase column (C18). […] The mass detection was effected with the LCT Premier or SQD mass detector from Waters.

In data set [9] the test system is Leptosphaeria nodorum. Description: Leptosphaeria test (wheat)/preventive. It counts as in vivo. The note with it: Parastagonospora nodorum, 500 ppm of active ingredient, preventive, evaluated 7-9 days after inoculation, read-out: efficacy. The procedure:
as §1, with “Leptosphaeria Test (Wheat)/Preventive” for “Pyrenophora Test (Barley)/Preventive”, “Leptosphaeria Test (Wheat)/Preventive Solvent: 49” for “Pyrenophora Test (Barley)/Preventive Solvent: 49”, “sprayed with a preparation of” for “sprayed with the preparation of”, “suspension of Leptosphaeria nodorum.” for “suspension of Pyrenophora teres.”

Data set [10] has as its system Botrytis cinerea. The experiment in a line: Botrytis test (beans)/preventive. The data set is classed as in vivo. The note with it: 48 h, 100 ppm of active ingredient, preventive, size of lesions evaluated 2 days after inoculation, read-out: efficacy. The procedure:
Botrytis Test (Beans)/Preventive Solvent: 24.5 parts by weight of acetone • 24.5 parts by weight of dimethylacetamide Emulsifier: 1 part by weight of alkylaryl polyglycol ether To produce a suitable preparation of active compound, 1 part by weight of active compound is mixed with the stated amounts of solvent and emulsifier, and the concentrate is diluted with water to the desired concentration. To test for preventive activity, young plants are sprayed with the preparation of active compound. After the spray coating has dried on, 2 small pieces of agar covered with growth of Botrytis cinerea are placed on each leaf.

The test system of data set [11] is Venturia inaequalis. Description: Venturia test (apples)/preventive. The following applies: 100 ppm of active ingredient, preventive, evaluated 10 days after inoculation. The data set is classed as in vivo. The method, then: Venturia Test (Apples)/Preventive Solvent: 24.5 parts by weight of acetone • 24.5 parts by weight of dimethylacetamide Emulsifier: 1 part by weight of alkylaryl polyglycol ether To produce a suitable preparation of active compound, 1 part by weight of active compound is mixed with the stated amounts of solvent and emulsifier, and the concentrate is diluted with water to the desired concentration. To test for preventive activity, young plants are sprayed with the preparation of active compound at the stated rate of application.

Data set [12] concerns Pyricularia oryzae. The experiment in a line: whole plant or invertebrate. It counts as in vivo. The note with it: 168 h, read-out: efficacy.
For data set [13], the system named is Phytophthora infestans. Description: whole plant or invertebrate. It counts as in vivo. The note with it: 72 h, read-out: efficacy.

On to `CC(=O)N(C(C)=O)c1cc(-c2c(-c3ccc(F)cc3)nn3c2CCOC3C)ccn1` (centres unmarked) [Example 10, N-acetyl-N-{4-[2-(4-fluorophenyl)-7-methyl-4,5-dihydropyrazolo[1,5-c][1,3]oxazin-3-yl]pyridin-2-yl}acetamide], for which the pest or weed control at 500 ppm in data set [1] turned out to be 90%; in data set [2] it was 95%; in [4], 100%; in [5] it was 95%; in [6] it was 95%; in data set [7] it was 94%. Moreover, the pest or weed control at 500 ppm in data set [9] stood at 90%. In data set [3], the efficacy was determined as 80%. This compound also gave a chromatographic logP in data set [8] of 2.56.

Regarding `CCC(=O)N(C(=O)C(C)C)c1cc(-c2c(-c3ccc(F)cc3)nn3c2CCOC3C)ccn1` (centres unmarked) [Example 3, N-{4-[2-(4-fluorophenyl)-7-methyl-4,5-dihydropyrazolo[1,5-c][1,3]oxazin-3-yl]pyridin-2-yl}-2-methyl-N-propionylpropanamide], the pest or weed control at 100 ppm came to 88% in [10] and 91% in data set [13]. Also, the pest or weed control at 500 ppm in data set [1] came to 90%; in data set [2], 100%; in data set [4], 100%; in data set [5], 95%; in [6], 95%; in data set [7] it was 89%. Moreover, the pest or weed control at 500 ppm in data set [9] and in data set [12] was 90% each time. Further, the efficacy in data set [3] was found to be 100%; in data set [11] it was 95%. Besides, the chromatographic logP in data set [8] is 3.83.

For the compound `CC(=O)N(C(C)=O)c1cc(-c2c(-c3ccsc3)nn3c2CCCC3)ccn1` [Example 4, N-acetyl-N-{4-[2-(3-thienyl)-4,5,6,7-tetrahydropyrazolo[1,5-a]pyridin-3-yl]pyridin-2-yl}acetamide], the pest or weed control at 100 ppm in [10] and in data set [13] was 95% each time. The pest or weed control at 500 ppm turned out to be 90% in data set [1], 95% in [2], 95% in [9] and 95% in [12]. This compound also yielded an efficacy in data set [11] of 95%. This compound had a chromatographic logP in [8] of 2.18.

For `O=C(C1CC1)N(C(=O)C1CC1)c1cc(-c2c(-c3ccc(F)cc3)nn3c2CCC3)ccn1` [Example 12, N-(cyclopropylcarbonyl)-N-{4-[2-(4-fluorophenyl)-5,6-dihydro-4H-pyrrolo[1,2-b]pyrazol-3-yl]pyridin-2-yl}cyclopropanecarboxamide], the pest or weed control at 500 ppm in data set [1] amounted to 80%; in data set [2], 95%; in [5], 100%; in data set [6], 95%; in data set [9], 95%; in [12], 80%. The compound also registered a chromatographic logP in [8] of 2.91.

On to `CC(C)CC(=O)N(C(=O)CC(C)C)c1cc(-c2c(-c3ccc(F)cc3)nn3c2CCOC3C)ccn1` (centres unmarked) [Example 13, N-{4-[2-(4-fluorophenyl)-7-methyl-4,5-dihydropyrazolo[1,5-c][1,3]oxazin-3-yl]pyridin-2-yl}-3-methyl-N-(3-methylbutanoyl)butanamide], for which the pest or weed control at 500 ppm in [1] is 78%; in data set [2] it was 89%; in data set [5], 93%; in [9], 89%. This compound also had a chromatographic logP in data set [8] of 5.01.

For `CC(=O)N(C(C)=O)c1cc(-c2c(-c3cccs3)nn3c2CCCC3)ccn1` [Example 8, N-acetyl-N-{4-[2-(2-thienyl)-4,5,6,7-tetrahydropyrazolo[1,5-a]pyridin-3-yl]pyridin-2-yl}acetamide], the pest or weed control at 500 ppm in data set [1] amounted to 89%; in [2], 100%; in data set [4] it was 92%; in [5], 95%; in data set [6] it was 89%; in [7], 88%. Further, the figures for the pest or weed control at 500 ppm in data set [9] and in data set [12] were 89% and 95%, respectively. The same compound returned a chromatographic logP in data set [8] of 2.18. Besides, the pest or weed control at 100 ppm in data set [13] turned out to be 83%.

Consider `CC(=O)N(C(C)=O)c1cc(-c2c(-c3ccccc3)nn3c2CCCC3)ccn1` [Example 2, N-acetyl-N-[4-(2-phenyl-4,5,6,7-tetrahydropyrazolo[1,5-a]pyridin-3-yl)pyridin-2-yl]acetamide], for which the pest or weed control at 100 ppm in [10] came out at 87%; in data set [13], 95%. For the same compound, the pest or weed control at 500 ppm turned out to be 100% in data set [1]; 100% in data set [2]; 100% in data set [4]; 96% in data set [5]; 100% in [6]; 100% in data set [7]. For the same compound, the pest or weed control at 500 ppm came to 95% in [9] and 70% in [12]. Further, the figures for the efficacy in data set [3] and in data set [11] were 100% and 71%, respectively. The compound also had a chromatographic logP in data set [8] of 2.22.

What is called chromatographic logP is a lipophilicity value derived from retention on a column. A higher chromatographic logP goes with higher lipophilicity.
